Data set [1] in a line: Water activity measurement (AquaLab Series 4TE). In kind it is physicochemical. Conditions: water activity in packaged body with controlled internal relative humidity. How it is done: The water activity was measured with AquaLab Series 4TE (METER Group Inc.). A sample having a volume of about 5 ml in a sample dish was placed in AquaLab Series 4TE, and the water activity at 25° C. was measured.

Data set [2] is described as follows: Oxidation stability on storage (QH residual rate by HPLC). In kind it is physicochemical. How it is done: The weight ratio of reduced coenzyme Q10 to total coenzyme Q10 (namely, reduced coenzyme Q10/(oxidized coenzyme Q10+reduced coenzyme Q10)) is defined as “QH ratio”. The QH ratio was determined by the following HPLC analysis. For the evaluation of oxidation stability, a rate of the change in the QH ratio at the end of the evaluation from that at the beginning of the evaluation was defined as “QH residual rate”, and the QH residual rate determined from the following expression was used as a measure of oxidation stability.
QH residual rate (%)=100×QH ratio at the end of the evaluation/QH ratio at the beginning of the evaluation
• Column: SYMMETRY C18 (manufactured by Waters); 250 mm (length), 4.6 mm (inner diameter) • Mobile phase: C2H5OH: CH3OH=4:3 (v:v) • Detection wavelength: 210 nm • Flow rate: 1 mL/min

Where [3] appears, read: stored 2 weeks at 40° C., 0.2 g in opened state in packaged body of controlled relative humidity (11% or 48%).

“co-crystal composed of QH and nicotinamide [Comparative Example 3]” yielded a Water activity in data set [1] of 0.48. In data set [2] (setting [3]), the “QH residual rate (%)” value is 82.6%.

As to `COc1c(O)c(C)c(C/C=C(\C)CC/C=C(\C)CC/C=C(\C)CC/C=C(\C)CC/C=C(\C)CC/C=C(\C)CC/C=C(\C)CC/C=C(\C)CC/C=C(\C)CCC=C(C)C)c(O)c1OC` [Comparative Example 2, reduced coenzyme Q10], the “QH residual rate (%)” value in data set [2] (stored 2 weeks at 40° C. and relative humidity 75%, 0.2 g in sealed container, internal relative humidity 48%) was found to be 37.2%. With `COc1c(O)c(C)c(C/C=C(\C)CC/C=C(\C)CC/C=C(\C)CC/C=C(\C)CC/C=C(\C)CC/C=C(\C)CC/C=C(\C)CC/C=C(\C)CC/C=C(\C)CCC=C(C)C)c(O)c1OC` [Comparative Example 1, reduced coenzyme Q10], in data set [1], the Water activity was 0.48. Moreover, in data set [2] (stored 4 weeks at 40° C. and relative humidity 75%, 0.2 g in sealed container, internal relative humidity 48%), the “QH residual rate (%)” value was 82.1%. “co-crystal composed of QH and nicotinamide [Example 5]”: in data set [1], the Water activity is on record as 0.11. Moreover, in data set [2] (setting [3]), the “QH residual rate (%)” value is reported as 94.7%.

Values taken from patent US20250059124A1, “METHOD FOR STORING REDUCED COENZYME Q10” (KANEKA CORPORATION, priority 2021, published 2025).
